pEC50: −log10 of the molar value.

Data set [1] is described as follows: Bioavailability in dog. The data set is classed as ADME, organism-based, Canis lupus familiaris. Conditions: in vivo.
For data set [2], the target named is Beta-3 adrenergic receptor (Homo sapiens, UniProt P13945). Put plainly: Agonist activity at human recombinant beta3 adrenergic receptor expressed in CHO cells assessed as cAMP accumulation by enzyme immuno assay. It counts as functional, cell-based.
Data set [3] can be described thus: AUC (0 to 24 hrs) in dog at 0.1 mg/kg, po by cassette assay. It counts as ADME, organism-based, Canis lupus familiaris. Conditions: plasma. On the set-up: time < 24 hr, dose 0.1 mg/kg, route oral.
Data set [4] is described as follows: Cmax in dog at 0.1 mg/kg, po by cassette assay. The data set is classed as ADME, organism-based, Canis lupus familiaris. On the set-up: dose 0.1 mg/kg, route oral. Conditions: in vivo.
Data set [5] can be described thus: Terminal half life in dog at 0.1 mg/kg, iv by cassette assay. Conditions: in vivo, read-out: beta t1/2 (converted). The data set is classed as ADME, organism-based, Canis lupus familiaris. On the set-up: dose 0.1 mg/kg, route intravenous.
In data set [6] the target is Beta-1 adrenergic receptor (Homo sapiens, UniProt P08588). Put plainly: Agonist activity at human recombinant beta-1 adrenergic receptor expressed in CHO cells assessed as cAMP accumulation by enzyme immuno assay. It counts as functional, cell-based.
The nature of data set [7]: Bioavailability in dog at 0.1 mg/kg, po by cassette assay. It counts as ADME, organism-based, Canis lupus familiaris. The settings on record: in vivo.
The nature of data set [8]: Total clearance in dog at 0.1 mg/kg, iv by cassette assay. The data set is classed as ADME, organism-based, Canis lupus familiaris. On the set-up: dose 0.1 mg/kg, route intravenous. The settings on record: in vivo.
Data set [9] in a line: Terminal half life in dog at 0.1 mg/kg, iv. Conditions: in vivo, read-out: beta t1/2 (converted). The arrangement: dose 0.1 mg/kg, route intravenous. The data set is classed as ADME, organism-based, Canis lupus familiaris.
Data set [10] concerns the target Beta-3 adrenergic receptor (Canis lupus familiaris, UniProt O02662). Put plainly: Agonist activity at dog recombinant beta3 adrenergic receptor expressed in CHO cells assessed as cAMP accumulation by enzyme immuno assay. The data set is classed as functional, cell-based.
A short description of data set [11]: Total clearance in rat at 0.34 mg/kg, iv by cassette assay. The data set is classed as ADME, organism-based. On the set-up: dose 0.34 mg/kg, route intravenous. The settings on record: in vivo.
Data set [12] in a line: AUC (0 to 24 hrs) in rat at 0.34 mg/kg, po by cassette assay. The data set is classed as ADME, organism-based. Conditions: plasma. The arrangement: time < 24 hr, dose 0.34 mg/kg, route oral.
Data set [13] in a line: Total clearance in dog at 0.1 mg/kg, iv. Conditions: in vivo. On the set-up: dose 0.1 mg/kg, route intravenous. The data set is classed as ADME, organism-based, Canis lupus familiaris.
Data set [14] is described as follows: Total clearance in monkey at 0.32 mg/kg, iv by cassette assay. On the set-up: dose 0.32 mg/kg, route intravenous. It counts as ADME, organism-based, Macaca mulatta. The settings on record: rhesus monkey, in vivo.
A short description of data set [15]: Cmax in dog at 0.1 mg/kg, po. It counts as ADME, organism-based, Canis lupus familiaris. The arrangement: dose 0.1 mg/kg, route oral. Conditions: in vivo.
Data set [16] is described as follows: Terminal half life in monkey plasma at 0.32 mg/kg, iv by cassette assay. It counts as ADME, organism-based, Macaca mulatta. On the set-up: dose 0.32 mg/kg, route intravenous. Conditions: rhesus monkey, read-out: beta t1/2 (converted).
Data set [17] has as its target Beta-2 adrenergic receptor (Homo sapiens, UniProt P07550). The data set can be described thus: Agonist activity at human recombinant beta2 adrenergic receptor expressed in CHO cells assessed as cAMP accumulation by enzyme immuno assay. It counts as functional, cell-based. A general note: cAMP levels reflect the balance of adenylyl cyclase and phosphodiesterase activity.

Data set [18] is described as follows: Bioavailability in monkey at 0.32 mg/kg, po by cassette assay. The data set is classed as ADME, organism-based, Macaca mulatta. Conditions: rhesus monkey, in vivo.
Data set [19] is described as follows: Cmax in rat at 0.34 mg/kg, po by cassette assay. It counts as ADME, organism-based. On the set-up: dose 0.34 mg/kg, route oral. The settings on record: in vivo.
For data set [20], the species on record is Canis familiaris. The data set can be described thus: cells. Conditions: Canis lupus familiaris, 3 h.
Description: Inhibition of carbachol-induced increase in intravesical pressure in intraduodenally dosed Beagle dog OAB model for 180 mins
A short description of data set [21]: Cmax in monkey at 0.32 mg/kg, po by cassette assay. It counts as ADME, organism-based, Macaca mulatta. The settings on record: rhesus monkey, in vivo. On the set-up: dose 0.32 mg/kg, route oral.
Data set [22] in a line: Protein binding in Beagle dog serum. It counts as ADME, cell-free, Canis lupus familiaris. Conditions: read-out: PPB (converted).
Data set [23] can be described thus: AUC (0 to 24 hrs) in monkey at 0.32 mg/kg, po by cassette assay. The data set is classed as ADME, organism-based, Macaca mulatta. On the set-up: time < 24 hr, dose 0.32 mg/kg, route oral. Conditions: rhesus monkey, plasma.
In data set [24] the test system is Rattus norvegicus. The data set can be described thus: Bioavailability in rat at 0.34 mg/kg, po by cassette assay. The data set is classed as ADME, organism-based. The settings on record: in vivo.
The nature of data set [25]: AUC (0 to 24 hrs) in dog at 0.1 mg/kg, po. Conditions: plasma. On the set-up: time < 24 hr, dose 0.1 mg/kg, route oral. It counts as ADME, organism-based, Canis lupus familiaris.
A short description of data set [26]: Bioavailability in dog at 0.1 mg/kg, po. The data set is classed as ADME, organism-based, Canis lupus familiaris. Conditions: in vivo.
Data set [27] deals with Rattus norvegicus. Put plainly: Terminal half life in rat at 0.34 mg/kg, iv by cassette assay. It counts as ADME, organism-based. The arrangement: dose 0.34 mg/kg, route intravenous. The settings on record: in vivo.

Chain of Beta-3 adrenergic receptor (Homo sapiens, UniProt P13945) (P13945 whole entry): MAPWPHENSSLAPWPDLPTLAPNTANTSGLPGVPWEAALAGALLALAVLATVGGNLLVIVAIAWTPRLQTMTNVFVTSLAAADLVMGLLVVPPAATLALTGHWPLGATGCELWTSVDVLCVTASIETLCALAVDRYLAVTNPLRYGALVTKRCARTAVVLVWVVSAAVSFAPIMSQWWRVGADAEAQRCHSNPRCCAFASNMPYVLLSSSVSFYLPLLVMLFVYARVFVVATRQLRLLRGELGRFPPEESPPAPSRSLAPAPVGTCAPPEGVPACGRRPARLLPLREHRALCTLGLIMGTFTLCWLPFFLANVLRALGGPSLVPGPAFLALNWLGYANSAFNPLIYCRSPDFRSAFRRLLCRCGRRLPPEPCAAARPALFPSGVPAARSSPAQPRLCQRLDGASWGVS
Chain of Beta-1 adrenergic receptor (P08588 whole entry): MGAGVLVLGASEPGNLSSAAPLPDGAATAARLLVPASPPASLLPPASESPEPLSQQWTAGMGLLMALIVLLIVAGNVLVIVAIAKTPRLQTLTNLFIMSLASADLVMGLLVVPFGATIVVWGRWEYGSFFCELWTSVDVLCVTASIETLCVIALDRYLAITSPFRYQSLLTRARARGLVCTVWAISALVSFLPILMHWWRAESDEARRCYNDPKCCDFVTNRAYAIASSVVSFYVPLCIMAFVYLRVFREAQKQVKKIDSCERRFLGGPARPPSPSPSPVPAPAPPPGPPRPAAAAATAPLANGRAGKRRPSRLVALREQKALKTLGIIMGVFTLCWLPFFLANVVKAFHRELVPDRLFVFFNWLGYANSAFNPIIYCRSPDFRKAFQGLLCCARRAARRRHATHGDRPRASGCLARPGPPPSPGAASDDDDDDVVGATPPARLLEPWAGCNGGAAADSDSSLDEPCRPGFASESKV
Chain of Beta-2 adrenergic receptor (P07550 whole entry): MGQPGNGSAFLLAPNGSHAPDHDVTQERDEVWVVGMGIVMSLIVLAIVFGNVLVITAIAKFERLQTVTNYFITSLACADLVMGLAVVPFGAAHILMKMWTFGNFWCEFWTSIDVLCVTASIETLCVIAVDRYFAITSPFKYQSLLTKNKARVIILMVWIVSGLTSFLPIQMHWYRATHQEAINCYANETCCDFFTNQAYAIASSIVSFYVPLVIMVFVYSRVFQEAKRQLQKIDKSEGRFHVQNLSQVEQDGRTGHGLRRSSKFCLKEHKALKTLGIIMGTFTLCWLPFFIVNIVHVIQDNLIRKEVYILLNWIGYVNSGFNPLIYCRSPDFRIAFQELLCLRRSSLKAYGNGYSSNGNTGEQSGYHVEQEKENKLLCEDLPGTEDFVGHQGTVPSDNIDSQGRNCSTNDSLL
Chain of Beta-3 adrenergic receptor (Canis lupus familiaris, UniProt O02662) (O02662 whole entry): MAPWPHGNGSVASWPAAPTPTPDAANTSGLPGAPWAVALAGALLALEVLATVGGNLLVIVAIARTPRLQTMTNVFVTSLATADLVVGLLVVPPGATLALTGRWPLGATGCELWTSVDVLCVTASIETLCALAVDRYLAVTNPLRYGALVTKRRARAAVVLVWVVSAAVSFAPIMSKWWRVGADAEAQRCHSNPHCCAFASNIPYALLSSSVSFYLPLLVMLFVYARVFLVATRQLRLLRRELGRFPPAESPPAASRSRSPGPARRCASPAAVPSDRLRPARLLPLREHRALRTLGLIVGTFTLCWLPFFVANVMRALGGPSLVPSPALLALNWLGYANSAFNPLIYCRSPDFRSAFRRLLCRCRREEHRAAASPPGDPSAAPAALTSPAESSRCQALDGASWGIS

For the molecule `O=C(O)c1ccc(-c2ccc(CCNC[C@H](O)c3cccc(Cl)c3)cc2)cc1OC1CCCCC1`, the bioavailability – broadly, the share of a dose that reaches the circulation, judged against a reference dose that is usually intravenous – in data set [1] came to 0%.

`COc1cc(-c2ccc(CCNC[C@H](O)c3cccc(Cl)c3)cc2)ccc1C(=O)O` returned a bioavailability in data set [1] of 58%.

Consider `CCCOc1cc(-c2ccc(OCCNC[C@H](O)c3cccc(Cl)c3)cc2)ccc1C(=O)O`, for which the pEC50 (in general, the negative decadic logarithm of the EC50, by convention in mol/L) is 9.68 in data set [2] and 6.92 in data set [6]. For the same molecule, the AUC(0-t) (commonly exposure summed from dosing to a finite time, without extrapolation to infinity) at 24 h in data set [3] was 420 ng·h/mL. Besides, in data set [4], the maximum concentration (Cmax) (as a rule, the maximum level reached in the sampled fluid or tissue) amounted to 40.6 ng/mL. Further, the half-life in data set [5] is 10.9 h. The same molecule displayed a bioavailability in [7] of 69.7%. Besides, the clearance (usually the volume of plasma or blood freed of the substance per unit of time) in [8] was determined as 2.9 mL/min/kg.

For the molecule `CC(C)Oc1cc(-c2ccc(CCN[C@@H](C)[C@H](O)c3ccccc3)cc2)ccc1C(=O)O`, the half-life in [9] was 14.3 h; in [16], 29 h. Besides, the pEC50 in data set [2] is 9.09; in [10] it was 8.43; in data set [17] it was less than 5.00; in [6], 6.11; in [20], 8.02. Further, the clearance in [11] is 6.8 mL/min/kg; in data set [13] it was 7.3 mL/min/kg; in [14], 2.5 mL/min/kg. In addition, the exposure AUC(0-t) at 24 h in data set [12] came out at 880 ng·h/mL; in data set [23], 1800 ng·h/mL; in data set [25] it was 134 ng·h/mL. The Cmax stood at 7.4 ng/mL in [15], 125 ng/mL in [19] and 178 ng/mL in [21]. Moreover, the bioavailability amounted to 88.2% in data set [18], 100% in [24] and 63.9% in data set [26]. Besides, in [20], the ED50 (commonly the midpoint of the dose-response relation) is 0.02 mg/kg. Further, the fraction unbound in [22] was 0.14. In data set [27], this molecule yielded a beta t1/2 of 8.2 h.

As to `CC(C)Cc1cc(-c2ccc(OCCNC[C@H](O)c3ccc(N)nc3)cc2)ccc1C(=O)O`, the negative-log EC50 (pEC50) was 10.23 in data set [2] and 7.92 in data set [6]. Further, the AUC(0-t) at 24 h in [3] is 38.2 ng·h/mL. In data set [4], this molecule gave a Cmax of 11.6 ng/mL. Moreover, the half-life in [5] is 9.5 h. The bioavailability in [7] worked out at 34.8%. Further, in data set [8], the clearance was 14.2 mL/min/kg.

The values above are taken from ChEMBL document CHEMBL1157533 (J Med Chem, 2008).
